The values that follow come from patent publication US8409581B2, “Compounds for treating amyloidoses” (Affiris AG, priority 2008, dated 2013).

One assay deals with injected peptide. Kind of assay: Mimotope vaccination of mice, serum titer ELISA against injected peptide. Particulars: 30 μg peptide-KLH, alum, s.c., FIG. 4. It counts as in vivo, C57/B16 mice. On the procedure:
(§1) Inhibiting as well as non-inhibiting peptides were coupled to KLH and injected into mice (wildtype C57/B16 mice; subcutaneous injection into the flank) together with an appropriate adjuvant (aluminium hydroxide). Animals were vaccinated 3-6 times in biweekly intervals and sera were taken biweekly as well. Titers to injected peptides, as well as to an irrelevant peptide were determined with every serum. Furthermore, titers against the recombinant human Aβ protein, and against original peptides were determined respectively. In general sera were analysed by reaction against peptides coupled to Bovine Serum Albumin (BSA) and recombinant full length proteins which were immobilised on ELISA plates. Titers were determined using anti mouse IgG specific antibodies. For detailed results see FIGS. 4, 5 and 6 respectively.
(§2) Female C57/b16 mice, 5-6 mice per group, were subcutaneously immunized with 30 μg peptide coupled to KLH. Control groups were administered original epitope-KLH conjugates respectively. As adjuvant alum was used (always 1 mg per mouse). […] The in vitro ELISA assay to determine the antibody titer was performed with sera of single mice after each vaccination in a two week interval (see FIGS. 6 and 7 respectively). Titers were calculated as OD max/2 in all figures shown. The wells of the ELISA plate were coated with mimotope-BSA conjugate and an irrelevant peptide-BSA conjugate (negative control). The positive control was performed by reaction of the parental antibody with the respective mimotope-BSA conjugate. The detection was performed with anti-mouse IgG. Additionally, recombinant proteins were immobilised on ELISA plates and sera reacted accordingly. FIGS. 4, 5 and 6 show representative examples for assays used to characterise mimotopes in vivo.

In assay [1] the test system is p1454 (unrelated sequence). Kind of assay: Mimotope vaccination of mice, serum titer ELISA against irrelevant peptide. It counts as in vivo, C57/B16 mice. Particulars: 30 μg peptide-KLH, alum, s.c., FIG. 4. On the procedure: as §1, §2
A general note: ELISA stands for enzyme-linked immunosorbent assay.

The next assay deals with original epitope p4377. Kind of assay: Mimotope vaccination of mice, serum titer ELISA against original epitope. The settings on record: 30 μg peptide-KLH, alum, s.c., FIG. 5. It counts as in vivo, C57/B16 mice. On the procedure: as §1, §2
Assay [2] has as its system monoclonal antibody MV-002. Kind of assay: In vitro binding assay (ELISA) of mimotopes to parental antibody. Also noted: species or system mice. Particulars: peptide coupled to BSA bound to ELISA plates (1 μM); parental antibody MV-002. On the procedure:
1. In Vitro Binding Assay (ELISA)
Peptides derived from Phage Display as well as variants thereof were coupled to BSA and bound to ELISA plates (1 μM; as indicated in the respective figures) and subsequently incubated with the monoclonal antibody that was used for the screening procedure to analyse binding capacity of identified peptides.

Assay [3] relates to monoclonal antibody MV-002 binding to the original epitope. Kind of assay: In vitro inhibition assay (ELISA). Further details: species or system mice. Particulars: for inhibition in in vitro inhibition/competition assay: MV-002, original epitope coated on ELISA plates; for Inhibition Capacity (competition code): OD at 5 ug peptide compared to original peptide, MV-002. On the procedure: 2. In Vitro Inhibition Assay (ELISA)
Different amounts of peptides (concentrations ranging from 5 μg to 0.03 μg; serial dilutions), derived from Phage Display were incubated with the monoclonal antibody that was used for the screening procedure. Peptides diminishing subsequent binding of the antibody to the original epitope coated on ELISA plates were considered as inhibiting in this assay.

Assay [4] deals with amyloid plaques (Aβ40/42) in brain. Kind of assay: Area occupied by amyloid plaques in Tg2576 AD mouse model. Particulars: Tg2576 mice. It counts as in vivo.

Take EVHHQKLVFC [p4377, reference compound]: the “immune response against injected peptide” value with injected peptide was “elicited immune responses”. Moreover, the “unspecific immune response against unrelated sequence (p1454)” value (“unspecific immune response” for short) in assay [1] is “failed to induce a relevant unspecific immune response”. Moreover, the “immune response against the original epitope p4377” value in the assay with original epitope p4377 is reported as “mounted detectable immune responses”.

Take “GEIYFERC [p4681, MV-002 mimotope peptide]”: the “Binding Capacity (binding code; OD halfmax 1:X, dilution factor of the parental AB)” value (“Binding Capacity” for short) in assay [2] is recorded as 3 (strong binding :>320000). Besides, in assay [3], the “inhibition in in vitro inhibition/competition assay” value is listed as “active in in vitro inhibition assays” and the “Inhibition Capacity (competition code)” value was 2 (strong inhibition (as original epitope; OD of peptide below 2, 3 times of original peptide)). For the same sequence, the “immune response against injected peptide” value in the assay with injected peptide is recorded as “elicited immune responses”. In addition, in assay [1], the “unspecific immune response” value is given as “failed to induce a relevant unspecific immune response”. For the same sequence, the “immune response against the original epitope p4377” value with original epitope p4377 was “mounted detectable immune responses”.

As to “SHTRLYFC [p4403, MV-002 mimotope peptide]”, in assay [2], the “Binding Capacity” value is 1 (weak binding :<40000). Further, in assay [3], the “inhibition in in vitro inhibition/competition assay” value is on record as “without inhibition capacity”. The “immune response against injected peptide” value with injected peptide was “elicited immune responses”. In assay [1], the “unspecific immune response” value is “failed to induce a relevant unspecific immune response”. Besides, in the assay on original epitope p4377, the “immune response against the original epitope p4377” value is “mounted detectable immune responses”.

Regarding “HMRLFFNC [p4670, MV-002 mimotope peptide]”, the “Binding Capacity” value in assay [2] was 3 (strong binding :>320000). Further, in assay [3], the “inhibition in in vitro inhibition/competition assay” value was “active in in vitro inhibition assays” and the “Inhibition Capacity (competition code)” value is on record as 1 (Weaker than original epitope (OD of peptide below 4, 6 times of original peptide)). The “immune response against injected peptide” value with injected peptide was “elicited immune responses”. Further, in assay [1], the “unspecific immune response” value is “failed to induce a relevant unspecific immune response”. For the same sequence, the “immune response against the original epitope p4377” value in the assay with original epitope p4377 is “mounted detectable immune responses”.

Take “GEIWFEGC [p4680, MV-002 mimotope peptide]”: the “Binding Capacity” value in assay [2] is reported as 3 (strong binding :>320000). In assay [3], the “inhibition in in vitro inhibition/competition assay” value was “active in in vitro inhibition assays” and the “Inhibition Capacity (competition code)” value is 2 (strong inhibition (as original epitope; OD of peptide below 2, 3 times of original peptide)). Further, in the assay on injected peptide, the “immune response against injected peptide” value is reported as “elicited immune responses”. For the same sequence, in assay [1], the “unspecific immune response” value is recorded as “failed to induce a relevant unspecific immune response”. The “immune response against the original epitope p4377” value in the assay on original epitope p4377 is listed as “mounted detectable immune responses”.

As for “HQKMIFAC [p4675, MV-002 mimotope peptide; used as KLH conjugate vaccine in Tg2576 mice]”, the “Binding Capacity” value in assay [2] is reported as 3 (strong binding :>320000). For the same sequence, in assay [3], the “inhibition in in vitro inhibition/competition assay” value is reported as “active in in vitro inhibition assays” and the “Inhibition Capacity (competition code)” value was 2 (strong inhibition (as original epitope; OD of peptide below 2, 3 times of original peptide)). Besides, in the assay with injected peptide, the “immune response against injected peptide” value is given as “elicited immune responses”. Moreover, in assay [1], the “unspecific immune response” value is given as “failed to induce a relevant unspecific immune response”. The “immune response against the original epitope p4377” value with original epitope p4377 is “mounted detectable immune responses”. Further, in assay [4] (group 2 versus PBS-ALUM control), the “reduction of area occupied by amyloid plaques following mimotope treatment” value was 31%. Also, in assay [4] (peptide-KLH conjugate adsorbed to ALUM, s.c. 6 times at monthly intervals, mAb 3A5 staining, control 0.35%), the “average area occupied by amyloid plaques” value is 0.24%.
